In general, GI50 refers to the concentration that inhibits growth by half. In general, EC50 refers to the concentration at which the effect is half-maximal. Read a high EC50 as weaker potency.

For 14 compounds, GI50 and EC50 results are on record in ChEMBL document CHEMBL1133949, “Development of C-20 modified betulinic acid derivatives as antitumor agents” (Bioorg Med Chem Lett, 2001).

Assay [1] concerns HCT-116. Briefly: Cytotoxicity of compound against human colon carcinoma (HCT116) using MTT assay. Format: functional. Background: Tetrazolium assays rely on reduction of a dye to a coloured formazan, in cell work by metabolically active cells.
The test system of assay [2] is M14. Briefly: Cytotoxicity of compound against human melanoma cell lines (M14-MEL) using MTT assay. Format: functional.
In assay [3] the test system is PC-3. Briefly: Cytotoxicity of compound against human prostate adenocarcinoma (PC3) using SRB assay. Format: functional, cell-based, Prostate gland. On the technique in general: The SRB assay estimates cell density from bound dye.
In assay [4] the test system is SK-MEL-2. As to the kind of experiment: Cytotoxicity of compound against SK-MEL-2 using SRB assay. The assay is classed as functional, cell-based, Homo sapiens.
Assay [5] deals with SK-MEL-2. As to the kind of experiment: Cytotoxicity of compound against human melanoma cell lines (SK-MEL-2) using MTT assay. The assay is classed as functional.
In assay [6] the test system is UACC-257. As to the kind of experiment: Cytotoxicity of compound against human melanoma cell lines (UACC-257) using MTT assay. Format: functional.

For `CC(=O)[C@@H]1CC[C@]2(C(=O)O)CC[C@]3(C)[C@H](CC[C@@H]4[C@@]5(C)CC[C@H](O)C(C)(C)[C@@H]5CC[C@]43C)[C@@H]12` [PLATANIC ACID], the 50% growth inhibitory concentration (GI50) in assay [1], in assay [2], in assay [5] and in assay [6] was > 50 µM each time. The EC50 in assay [3] and in assay [4] was > 50 µM throughout.
As for `C=C(CNOC)[C@@H]1CC[C@]2(C(=O)O)CC[C@]3(C)[C@H](CC[C@@H]4[C@@]5(C)CC[C@H](O)C(C)(C)[C@@H]5CC[C@]43C)[C@@H]12`, the concentration giving a half-maximal response (EC50) in assay [3] and in assay [4] was > 50 µM each time.
Consider `C=C(CNO)[C@@H]1CC[C@]2(C(=O)O)CC[C@]3(C)[C@H](CC[C@@H]4[C@@]5(C)CC[C@H](O)C(C)(C)[C@@H]5CC[C@]43C)[C@@H]12`, for which the 50% effective concentration (EC50) in assay [3] and in assay [4] was > 50 µM in each case.
Turning to `C=C(CO)[C@@H]1CC[C@]2(C(=O)O)CC[C@]3(C)[C@H](CC[C@@H]4[C@@]5(C)CC[C@H](O)C(C)(C)[C@@H]5CC[C@]43C)[C@@H]12`, the GI50 is > 9.8 µM in assay [1], > 16.2 µM in assay [2], > 9.3 µM in assay [5] and > 50 µM in assay [6]. The half-maximal effective concentration (EC50) in assay [3] is > 8.4 µM; in assay [4] it was > 9 µM.
Consider `CO/N=C1\CC[C@]2(C)[C@H]3CC[C@@H]4[C@H]5[C@H](C(C)C)CC[C@]5(C(=O)O)CC[C@@]4(C)[C@]3(C)CC[C@H]2C1(C)C`, for which the EC50 was > 16.4 µM in assay [3] and > 21.2 µM in assay [4].
For `CO/N=C(/C)[C@@H]1CC[C@]2(C(=O)O)CC[C@]3(C)[C@H](CC[C@@H]4[C@@]5(C)CC[C@H](O)C(C)(C)[C@@H]5CC[C@]43C)[C@@H]12`, the GI50 in assay [1], in assay [2], in assay [5] and in assay [6] was > 50 µM each time. Moreover, the concentration for a half-maximal effect (EC50) in assay [3] and in assay [4] was > 50 µM each time.
As to `C=C(C)[C@@H]1CC[C@]2(C(=O)O)CC[C@]3(C)[C@H](CC[C@@H]4[C@@]5(C)CC[C@H](OC(C)=O)C(C)(C)[C@@H]5CC[C@]43C)[C@@H]12`, the GI50 was > 11.3 µM in assay [1], > 6.4 µM in assay [2], > 3.9 µM in assay [5] and > 4.5 µM in assay [6]. The concentration giving a half-maximal response (EC50) in assay [3] is > 7.2 µM; in assay [4] it was > 6.9 µM.
For `C=C(COC)[C@@H]1CC[C@]2(C(=O)O)CC[C@]3(C)[C@H](CC[C@@H]4[C@@]5(C)CC[C@H](O)C(C)(C)[C@@H]5CC[C@]43C)[C@@H]12`, the GI50 is > 8.6 µM in assay [1], > 9 µM in assay [2], > 50 µM in assay [5] and > 12.7 µM in assay [6]. Besides, the figures for the EC50 in assay [3] and in assay [4] were > 9.4 µM and > 10.1 µM, respectively.
For `CC(C)[C@@H]1CC[C@]2(C(=O)O)CC[C@]3(C)[C@H](CC[C@@H]4[C@@]5(C)CC/C(=N\O)C(C)(C)[C@@H]5CC[C@]43C)[C@@H]12`, the EC50 was > 3 µM in assay [3] and > 3.4 µM in assay [4].
Turning to `CC(C)[C@@H]1CC[C@]2(C(=O)O)CC[C@]3(C)C(CCC4[C@@]5(C)CC[C@H](O)C(C)(C)C5CC[C@]43C)C12` (stereo not given in full) [DIHYDROBETULINIC ACID], the half-maximal effective concentration (EC50) in assay [3] is > 2.2 µM; in assay [4], > 2 µM.
With `CC(O)[C@@H]1CC[C@]2(C(=O)O)CC[C@]3(C)[C@H](CC[C@@H]4[C@@]5(C)CC[C@H](O)C(C)(C)[C@@H]5CC[C@]43C)[C@@H]12` (stereo not given in full), the 50% growth inhibitory concentration (GI50) in assay [1], in assay [2], in assay [5] and in assay [6] was > 50 µM each time. The EC50 in assay [3] and in assay [4] was > 50 µM throughout.
Turning to `C/C(=N/O)[C@@H]1CC[C@]2(C(=O)O)CC[C@]3(C)[C@H](CC[C@@H]4[C@@]5(C)CC[C@H](O)C(C)(C)[C@@H]5CC[C@]43C)[C@@H]12`, the GI50 in assay [1], in assay [2], in assay [5] and in assay [6] was > 50 µM throughout. Besides, the EC50 in assay [3] and in assay [4] was > 50 µM each time.
Take `CC(C)[C@@H]1CC[C@]2(C(=O)O)CC[C@]3(C)[C@H](CC[C@@H]4[C@@]5(C)CCC(=O)C(C)(C)[C@@H]5CC[C@]43C)[C@@H]12` [DIHYDROBETULONIC ACID]: the 50% effective concentration (EC50) was > 1.3 µM in assay [3] and > 1.6 µM in assay [4].
Regarding `C=C(C)[C@@H]1CC[C@]2(C(=O)O)CC[C@]3(C)[C@H](CC[C@@H]4[C@@]5(C)CC[C@H](O)C(C)(C)[C@@H]5CC[C@]43C)[C@@H]12` [BETULINIC ACID], the GI50 in assay [1] was found to be 2.7 µM; in assay [2] it was 2.7 µM; in assay [5], 3.2 µM; in assay [6], 1.5 µM. Moreover, the concentration for a half-maximal effect (EC50) in assay [3] came out at 1.9 µM; in assay [4] it was 2.2 µM.
